This note sets out measurements from PMC5029940, “High Throughput Random Mutagenesis and Single Molecule Real Time Sequencing of the Muscle Nicotinic Acetylcholine Receptor” (PLoS ONE, 2016).

Holding throughout (assay type): cell-based
In assay [1] the target is T1, human muscle nicotinic acetylcholine receptor (nAChR), adult form, (α1)2β1δε (Homo sapiens, UniProt P02708+Q04844+Q07001).
T1 construct: gene CHRNA1; full-length untagged subunits; CMV-alpha1 plasmid plus EF1alpha beta1-delta-epsilon triple plasmid, transient in HEK293; heteropentamer; with Acetylcholine receptor subunit beta
Put plainly: Fluo-4 Ca2+ flux, FLIPR. Particulars: read-out: α1-Wt / EC50. The text has this: (§1) Fluo-4 Ca2+ flux, FLIPR on human muscle nicotinic acetylcholine receptor (nAChR), adult form, (α1)2β1δε

Assay [2] concerns the target T2, human muscle nicotinic acetylcholine receptor (nAChR), adult form, (α1)2β1δε (Homo sapiens, UniProt P02708+Q04844+Q07001, P02708:V275M).
T2 construct: gene CHRNA1; full-length untagged subunits; CMV-alpha1 plasmid plus EF1alpha beta1-delta-epsilon triple plasmid, transient in HEK293; heteropentamer; with Acetylcholine receptor subunit beta
The assay can be described thus: Fluo-4 Ca2+ flux, FLIPR.
From the text: as §1
A general note: A change in cytosolic calcium serves as a functional read-out for many receptors and channels.

Assay [3] concerns the target T3, human muscle nicotinic acetylcholine receptor (nAChR), adult form, (α1)2β1δε (Homo sapiens, UniProt P02708+Q04844+Q07001, P02708:Y233H).
T3 construct: gene CHRNA1; full-length untagged subunits; CMV-alpha1 plasmid plus EF1alpha beta1-delta-epsilon triple plasmid, transient in HEK293; heteropentamer; with Acetylcholine receptor subunit beta
Put plainly: Fluo-4 Ca2+ flux, FLIPR.
From the text: as §1

Assay [4] has as its target T4, human muscle nicotinic acetylcholine receptor (nAChR), adult form, (α1)2β1δε (Homo sapiens, UniProt P02708+Q04844+Q07001, P02708:Y233N).
T4 construct: gene CHRNA1; full-length untagged subunits; CMV-alpha1 plasmid plus EF1alpha beta1-delta-epsilon triple plasmid, transient in HEK293; heteropentamer; with Acetylcholine receptor subunit beta
Put plainly: Fluo-4 Ca2+ flux, FLIPR.
From the text: as §1

Assay [5] deals with T1, human muscle nicotinic acetylcholine receptor (nAChR), adult form, (α1)2β1δε. The assay can be described thus: Fluo-4 Ca2+ flux, FLIPR, inhibition of epibatidine response.
Target sequence in this assay (P02708 21-457): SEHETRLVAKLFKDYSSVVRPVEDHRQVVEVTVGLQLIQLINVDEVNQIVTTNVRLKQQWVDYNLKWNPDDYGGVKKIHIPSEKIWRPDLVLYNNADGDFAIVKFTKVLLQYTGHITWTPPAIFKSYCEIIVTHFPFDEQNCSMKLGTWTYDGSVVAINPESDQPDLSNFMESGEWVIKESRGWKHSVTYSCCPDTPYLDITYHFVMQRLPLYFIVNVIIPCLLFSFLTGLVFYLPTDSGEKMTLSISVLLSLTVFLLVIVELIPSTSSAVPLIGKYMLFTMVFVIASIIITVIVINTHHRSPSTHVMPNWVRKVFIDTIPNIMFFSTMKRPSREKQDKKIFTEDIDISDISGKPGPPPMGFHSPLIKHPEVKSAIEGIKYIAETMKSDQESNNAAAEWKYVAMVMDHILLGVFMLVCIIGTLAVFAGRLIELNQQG
Target sequence in this assay (Q07001 22-517): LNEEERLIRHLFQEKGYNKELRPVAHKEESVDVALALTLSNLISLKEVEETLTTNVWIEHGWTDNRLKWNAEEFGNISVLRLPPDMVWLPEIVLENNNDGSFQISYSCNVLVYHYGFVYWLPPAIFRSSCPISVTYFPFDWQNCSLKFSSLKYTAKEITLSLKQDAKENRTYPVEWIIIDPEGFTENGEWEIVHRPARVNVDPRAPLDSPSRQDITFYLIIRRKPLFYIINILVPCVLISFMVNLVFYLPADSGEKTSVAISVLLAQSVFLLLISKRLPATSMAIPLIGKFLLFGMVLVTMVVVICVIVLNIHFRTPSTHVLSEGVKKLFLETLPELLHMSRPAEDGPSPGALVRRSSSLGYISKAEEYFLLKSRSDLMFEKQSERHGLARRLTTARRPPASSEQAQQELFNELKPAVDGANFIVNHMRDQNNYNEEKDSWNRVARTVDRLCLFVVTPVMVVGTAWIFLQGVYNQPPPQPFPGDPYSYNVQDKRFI
Target sequence in this assay (Q04844 21-493): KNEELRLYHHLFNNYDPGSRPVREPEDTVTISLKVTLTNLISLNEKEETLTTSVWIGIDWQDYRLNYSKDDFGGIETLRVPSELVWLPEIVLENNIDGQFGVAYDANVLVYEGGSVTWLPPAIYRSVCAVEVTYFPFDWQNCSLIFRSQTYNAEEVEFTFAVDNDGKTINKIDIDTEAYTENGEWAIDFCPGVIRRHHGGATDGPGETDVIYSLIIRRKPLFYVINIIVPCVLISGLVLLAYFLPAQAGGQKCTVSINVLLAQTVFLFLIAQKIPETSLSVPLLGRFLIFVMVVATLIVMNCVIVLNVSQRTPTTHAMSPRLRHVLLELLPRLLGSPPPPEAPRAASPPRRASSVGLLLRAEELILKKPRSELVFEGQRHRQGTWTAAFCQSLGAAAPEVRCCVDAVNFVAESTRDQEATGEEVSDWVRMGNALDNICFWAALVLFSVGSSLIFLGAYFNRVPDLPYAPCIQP
Target sequence in this assay (P11230 24-501 partner): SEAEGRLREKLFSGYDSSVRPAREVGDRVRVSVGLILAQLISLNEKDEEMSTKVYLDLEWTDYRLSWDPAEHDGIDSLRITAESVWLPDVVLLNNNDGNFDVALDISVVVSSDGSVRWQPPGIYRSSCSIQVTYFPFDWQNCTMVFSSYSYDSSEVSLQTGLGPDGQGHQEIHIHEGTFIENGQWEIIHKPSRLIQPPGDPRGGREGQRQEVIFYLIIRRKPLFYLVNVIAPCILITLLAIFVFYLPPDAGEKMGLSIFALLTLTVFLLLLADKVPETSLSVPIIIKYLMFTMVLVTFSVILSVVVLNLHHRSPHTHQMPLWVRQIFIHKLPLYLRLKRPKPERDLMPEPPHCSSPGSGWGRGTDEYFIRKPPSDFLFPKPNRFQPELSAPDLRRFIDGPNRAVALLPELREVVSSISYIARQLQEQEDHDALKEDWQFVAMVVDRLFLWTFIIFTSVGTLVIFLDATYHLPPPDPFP

Regarding `CN1CCC[C@H]1c1cccnc1` [Nicotine], the EC50 in assay [1] turned out to be 3.65 ± 1.04 µM; in assay [2] it was 0.557 ± 0.226 µM; in assay [3], 1.39 ± 0.117 µM; in assay [4], 1.38 ± 0.096 µM.

With `C[N+]1(C)CCN(c2ccccc2)CC1` [DMPP], the EC50 in assay [1] stood at 1.63 ± 0.203 µM; in assay [2], 0.067 ± 0.015 µM; in assay [3], 0.161 ± 0.01 µM; in assay [4], 0.705 ± 0.022 µM.

For orientation: IC50 means the concentration that inhibits the measured activity by half. Lower therefore signals greater potency in that assay. Compound `COc1cc2c3cc1Oc1cc(ccc1O)C[C@@H]1c4c(cc(OC)c(O)c4Oc4ccc(cc4)C[C@@H]3N(C)CC2)CC[N+]1(C)C` [tubocurarine] yielded a half-inhibitory concentration (IC50) in assay [5] of 3.2 ± 2.4 µM.

As to `O=c1cccc2n1C[C@@H]1CNC[C@H]2C1` [Cytisine], the EC50 turned out to be 2.35 ± 0.367 µM in assay [1], 0.592 ± 0.153 µM in assay [2], 0.65 ± 0.093 µM in assay [3] and 1.18 ± 0.076 µM in assay [4].
